Data on ten compounds can be found in paper PMC10062379 (Archives of biochemistry and biophysics, 2022).

The first assay addresses tubulin (αβ-heterodimer). Nature of the assay: competition with [3H]spongistatin […], centrifugal gel filtration.
Details: not given
Type of assay: binding, Bos taurus. A general note: SEC sorts molecules by how far they enter the pores of the column.
As a reminder, the Ki is the equilibrium dissociation constant of an inhibitor or competing ligand from its target. A lower Ki goes with higher affinity. On to `C=C(Cl)/C=C/C(O)CC(=C)CC1OC2C(C)C(OC(=O)CC3CC(O)CC4(CC(C)(O)CC(/C=C5/COC(C(C)C(=O)CC6CC(OC)CC7(CC(O)CC(/C=C\CCCC8OC(O)(CC(O)C8C)C2O)O7)O6)C5C)O4)O3)C1O` (stereo not shown) [spongistatin 5], for which the affinity, expressed as Ki, was 2200 nM.

A further assay deals with HeLa. Nature of the assay: cells. On the set-up: species or system OVCAR-8, NCI/ADR-RES. As to conditions: Homo sapiens, 96 h, read-out: HeLa / IC50 (nM) ± S.D.).
On to `CC(C)[C@H](O)C(=O)N[C@H]1Cc2ccc3c(c2)[C@]24C5=C(N=C(O5)[C@H](C(C)C)NC1=O)c1nc(Cl)c(o1)-c1c(Cl)[nH]c5cccc(c15)-c1cccc2c1N[C@@H]4O3` [Diazonamide A], for which the IC50 amounted to 15 ± 5 nM.

For `COc1cc2cc(c1Cl)N(C)C(=O)C[C@H](OC(=O)[C@H](C)N(C)C(C)=O)[C@]1(C)O[C@H]1[C@H](C)[C@@H]1C[C@@](O)(NC(=O)O1)[C@H](OC)/C=C/C=C(\C)C2` [Maytansine], the IC50 turned out to be 2 nM.

Consider `CO[C@@H](/C(C)=C/C=C/C(C)=C/c1coc(C)n1)[C@@H](C)[C@@H]1C[C@H](O)[C@@]2(C)O[C@@H]2/C=C/[C@@H](C)[C@H]2C[C@H](CC(=O)O2)C[C@@H]2O[C@H]2C(=O)O1` [Rhizoxin], for which the IC50 was 3 ± 1 nM.

On to `COc1ccc(C[C@H]2NC(=O)/C=C/C[C@@H]([C@H](C)[C@H]3O[C@@H]3c3ccccc3)OC(=O)[C@H](CC(C)C)OC(=O)[C@H](C)CNC2=O)cc1Cl` [cryptophycin 1], for which the IC50 came out at 0.01 ± 0.004 nM.

As for `CC[C@H](C)[C@@H]([C@@H](CC(=O)N1CCC[C@H]1[C@H](OC)[C@@H](C)C(=O)N[C@@H](Cc1ccccc1)c1nccs1)OC)N(C)C(=O)[C@@H](NC(=O)[C@H](C(C)C)N(C)C)C(C)C` [dolastatin 10], the IC50 worked out at 0.04 ± 0.01 nM.

With `C=C1C[C@@H]2CC[C@@]34C[C@H]5O[C@H]6[C@@H](O3)[C@H]3O[C@H](CC[C@@H]3O[C@H]6[C@H]5O4)CC(=O)C[C@@H]3[C@@H](OC)[C@@H](C[C@H](O)CN)O[C@H]3C[C@H]3O[C@@H](CC[C@@H]1O2)C[C@@H](C)C3=C` [eribulin], the IC50 was found to be 20 nM.

As to `CN[C@H](C(=O)N[C@H](C(=O)N(C)[C@H](/C=C(\C)C(=O)O)C(C)C)C(C)(C)C)C(C)(C)c1cn(C)c2ccccc12` [hemiasterlin], the IC50 came out at 0.25 ± 0.05 nM.

For the compound `CC[C@]1(O)C[C@@H]2CN(CCc3c([nH]c4ccccc34)[C@@](C(=O)OC)(c3cc4c(cc3OC)N(C)[C@H]3[C@@](O)(C(=O)OC)[C@H](OC(C)=O)[C@]5(CC)C=CCN6CC[C@]43[C@@H]65)C2)C1` [vinblastine], the IC50 turned out to be 6 ± 3 nM.

For a further assay, the target named is tubulin (αβ-heterodimer). Nature of the assay: [3H] radioligand binding. On the set-up: species or system Bos taurus.
Details: not given
One may read the Kd as the constant that tells how readily two partners part at equilibrium. A high value points to a looser complex. Regarding spongistatin 1, the Kd was 1100 ± 300 nM.
